Like-named read-outs stand apart in the source and are kept apart here.
Columns and labels:
BuChE from human serum = target: T1, BuChE from human serum (Homo sapiens, UniProt P06276); test: Butyrylcholinesterase (BuChE) inhibition, Ellman colorimetric method; format: biochemical
T1 construct: 0.1 unit/ml BuChE from human serum; from tissue; host or cells: human serum
Protocol: Butyrylcholinesterase (BuChE) Inhibition (from Human Serum)
BuChE inhibitory activity was evaluated at 30° C. by the colorimetric method reported by Ellman [Ellman, G. L.; Courtney, K. D.; Andres, B.; Featherstone, R. M. Biochem. Pharmacol. 1961, 7, 88-95]. The assay solution consisted of 0.1 unit/ml BuChE from human serum, 0.1 M sodium phosphate buffer pH 8, 0.3 mM 5,5′-dithiobis (2-nitrobenzoic acid) (DTNB, Ellman's reagent), and 0.5 mM butyrylthiocholine iodide as the substrate of the enzymatic reaction. Enzyme activity was determined by measuring the absorbance at 405 nm during 5 minutes with a microplate reader Digiscan 340T. The tested compounds were preincubated with the enzyme for 10 minutes at 30° C. The reaction rate was calculated with, at least, triplicate measurements. The IC50 is defined as the concentration of each compound that reduces a 50% the enzymatic activity with respect to that without inhibitors.

[1] = test system: human neuroblastoma cell line SH-SY5Y; test: Toxicity measurement, LDH release cytotoxicity; format: cell-based; conditions: SH-SY5Y cells, 24 hours exposure
Protocol: The cytotoxicity effect of the molecules was tested in the human neuroblastoma cell line SH-SY5Y. These cells were cultured in 96-well plates in a 1:1 mixture of Ham's F12 nutrients and essential medium (MEM), supplemented with 10% fetal bovine serum and 1% penicillin/streptomycin, and grown in a 5% CO2 humidified incubator at 37° C.
The cells were plated at 10^4 cells for each well, at least, 48 hours before the toxicity measure. Cells were exposed for 24 hours to the compounds at different concentrations (from 10^−5 to 10^−9), quantitative assessment of cell death was made by measurement of the intracellular enzyme lactate dehydrogenase (LDH) (citotoxicity detection kit, Roche). The quantity of LDH was measured and evaluated in a microplate reader Anthos 2010, at 492 and 620 nm. Controls were taken as 100% viability.

[2] = target: T2, AChE from bovine erythrocytes (Bos taurus, UniProt P23795); test: Acetylcholinesterase (AChE) inhibition, Ellman colorimetric method; format: biochemical
T2 construct: 0.2 unit/ml AChE (Sigma Chemical Co. from bovine erythrocytes); purchased Sigma Chemical Co; host or cells: bovine erythrocytes
T2 sequence (P23795 31-614 isoform P23795-2 limits assumed): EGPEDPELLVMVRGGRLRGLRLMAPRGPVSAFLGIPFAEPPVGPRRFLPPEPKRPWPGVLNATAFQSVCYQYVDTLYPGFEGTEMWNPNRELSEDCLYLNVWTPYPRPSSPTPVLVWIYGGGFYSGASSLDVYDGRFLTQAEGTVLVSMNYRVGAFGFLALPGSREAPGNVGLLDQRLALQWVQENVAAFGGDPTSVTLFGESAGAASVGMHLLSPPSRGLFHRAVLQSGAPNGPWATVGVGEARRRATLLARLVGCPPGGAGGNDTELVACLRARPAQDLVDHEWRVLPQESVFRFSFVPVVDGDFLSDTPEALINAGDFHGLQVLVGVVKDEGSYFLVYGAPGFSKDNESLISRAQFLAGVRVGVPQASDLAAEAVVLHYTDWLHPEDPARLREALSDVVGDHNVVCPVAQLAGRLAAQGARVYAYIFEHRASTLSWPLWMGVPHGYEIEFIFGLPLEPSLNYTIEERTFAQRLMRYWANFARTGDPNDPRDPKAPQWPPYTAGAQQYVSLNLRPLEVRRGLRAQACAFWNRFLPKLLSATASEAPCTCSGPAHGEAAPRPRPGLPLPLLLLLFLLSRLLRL
Protocol: Acetylcholinesterase (AChE) Inhibition (from Bovine Erythrocytes)
AChE inhibitory activity was evaluated at 30° C. by the colorimetric method reported by Ellman [Ellman, G. L.; Courtney, K. D.; Andres, B.; Featherstone, R. M. Biochem. Pharmacol. 1961, 7, 88-95]. The assay solution consisted of 0.1 M phosphate buffer pH 8, 0.3 mM 5,5′-dithiobis (2-nitrobenzoic acid) (DTNB, Ellman's reagent), 0.2 unit/ml AChE (Sigma Chemical Co. from bovine erythrocytes), and 0.5 mM acetylthiocholine iodide as the substrate of the enzymatic reaction. The compounds tested were added to the assay solution and pre incubated with the enzyme for 5 min at 30° C. After that period, the substrate was added. The absorbance changes at 405 nm were recorded for 5 min with a microplate reader Digiscan 340T, the reaction rates were compared, and the percent inhibition due to the presence of test compounds was calculated. The reaction rate was calculated with, at least, triplicate measurements, and the percent inhibition due to the presence of test compound was calculated relative to the compound-free control. The compound concentration producing 50% of AChE inhibition (IC50) was determined.

AChE peripheral site = AChE peripheral site (Homo sapiens, UniProt P22303); test: Propidium competition, fluorescence; format: binding; conditions: 5 μM AChE incubated at least 6 hours, 20 μM propidium iodide, 1 mM Tris/HCl pH 8.0
AChE peripheral site, sequence (P22303 32-614): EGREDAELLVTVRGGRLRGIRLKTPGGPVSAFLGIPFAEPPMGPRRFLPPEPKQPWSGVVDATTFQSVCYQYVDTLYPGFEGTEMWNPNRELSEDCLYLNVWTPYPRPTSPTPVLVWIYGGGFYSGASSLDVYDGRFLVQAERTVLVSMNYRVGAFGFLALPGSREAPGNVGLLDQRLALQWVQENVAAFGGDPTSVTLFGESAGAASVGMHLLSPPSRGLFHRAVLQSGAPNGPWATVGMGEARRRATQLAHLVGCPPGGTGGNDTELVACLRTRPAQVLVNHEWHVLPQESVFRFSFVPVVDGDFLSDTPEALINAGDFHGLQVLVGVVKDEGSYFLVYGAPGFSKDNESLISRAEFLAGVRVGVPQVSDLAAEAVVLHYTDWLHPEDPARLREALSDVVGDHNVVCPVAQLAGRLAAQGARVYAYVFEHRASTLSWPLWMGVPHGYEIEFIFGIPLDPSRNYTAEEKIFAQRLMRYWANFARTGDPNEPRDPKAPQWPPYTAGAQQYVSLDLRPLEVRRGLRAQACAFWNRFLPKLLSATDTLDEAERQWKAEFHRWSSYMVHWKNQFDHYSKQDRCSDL
Protocol: Fluorescence was measured in a Fluostar optima plate reader (BMG). Measurements were carried out in 100 μl solution volume, in 96-well plates. The buffer used was 1 mM Tris/HCl, pH 8.0. 5 μM AchE was incubated, at least 6 hours, with the molecules at different concentrations. 20 μM propidium iodide was added 10 min before fluorescence measurement. The excitation wavelength was 485 nm, and that of emission, 620 nm.

T1 sequence (P06276 29-602): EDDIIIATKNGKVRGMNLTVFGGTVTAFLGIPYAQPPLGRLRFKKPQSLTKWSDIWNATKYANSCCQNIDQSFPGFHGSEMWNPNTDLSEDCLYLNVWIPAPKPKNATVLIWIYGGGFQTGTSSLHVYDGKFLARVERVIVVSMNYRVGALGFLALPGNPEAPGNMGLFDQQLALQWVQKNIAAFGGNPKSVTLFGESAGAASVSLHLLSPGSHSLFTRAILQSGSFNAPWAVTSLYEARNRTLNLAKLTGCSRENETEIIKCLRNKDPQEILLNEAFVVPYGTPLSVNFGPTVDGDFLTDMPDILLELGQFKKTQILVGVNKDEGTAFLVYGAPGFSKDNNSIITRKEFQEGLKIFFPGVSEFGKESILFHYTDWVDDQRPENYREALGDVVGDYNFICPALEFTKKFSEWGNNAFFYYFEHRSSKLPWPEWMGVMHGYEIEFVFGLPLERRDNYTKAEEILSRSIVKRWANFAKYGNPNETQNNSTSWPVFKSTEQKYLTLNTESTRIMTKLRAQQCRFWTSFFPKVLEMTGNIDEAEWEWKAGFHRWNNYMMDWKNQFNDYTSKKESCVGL

Row | SMILES | IC50 (BuChE from human serum) [nM] | Toxicity [1] [µM] | IC50 [2] [nM] | Propidium competition (AChE peripheral site) [µM] | selectivity with respect to AChE (BuChE from human serum; BuChE versus AChE) | IC50 (BuChE from human serum; BuChE from human serum, 30° C., pH 8, 10 min preincubation, butyrylthiocholine iodide substrate, read-out: IC50 BuChE) [nM] | IC50 ([2]; AChE from bovine erythrocytes, 30° C., pH 8, 5 min preincubation, acetylthiocholine iodide substrate, read-out: IC50 AChE) [nM]
1 | O=C(Cc1c[nH]c2ccccc12)NCCC1CCN(Cc2ccccc2)CC1 [Compound 1, N-[2-(1-Benzyl-piperidin-4-yl)-ethyl]-2-(lH-indol-3-yl)-acetamide] | 0.8 | >100 | 200 | 1 | – | – | –
2 | Cn1cc(CC(=O)NCCC2CCN(Cc3ccccc3)CC2)c2ccccc21 [Compound 2, N-[2-(1-Benzyl-piperidin-4-yl)-ethyl]-2-(1-methyl-1H-indol-3-yl)-acetamide] | 1 | >100 | 400 | 100 | – | – | –
3 | Cc1[nH]c2ccccc2c1CC(=O)NCCC1CCN(Cc2ccccc2)CC1 [Compound 3, N-[2-(1-Benzyl-piperidin-4-yl)-ethyl]-2-(2-methyl-1H-indol-3-yl)-acetamide] | 2 | >100 | 200 | 100 | – | – | –
4 | O=C(Cc1c[nH]c2ccc(Br)cc12)NCCC1CCN(Cc2ccccc2)CC1 [Compound 4, N-[2-(1-Benzyl-piperidin-4-yl)-ethyl]-2-(5-bromo-1H-indol-3-yl)-acetamide] | 0.25 | >100 | 250 | 1 | – | – | –
5 | O=C(CCc1c[nH]c2ccccc12)NCCC1CCN(Cc2ccccc2)CC1 [Compound 5, N-[2-(1-Benzyl-piperidin-4-yl)-ethyl]-3-(1H-indol-3-yl)-propionamide] | 0.05 | >100 | 2000 | 100 | 5 orders of magnitude | – | –
6 | O=C(CCCc1c[nH]c2ccccc12)NCCC1CCN(Cc2ccccc2)CC1 [Compound 6, N-[2-(1-Benzyl-piperidin-4-yl)-ethyl]-4-(1H-indol-3-yl)-butyramide] | 5 | >100 | 300 | 100 | – | – | –
7 | O=C(NCCC1CCN(Cc2ccccc2)CC1)OCCc1c[nH]c2ccccc12 [Compound 7, [2-(1-Benzyl-piperidin-4-yl)-ethyl]-carbamic acid 2-(1H-indol-3-yl)-ethyl ester] | – | >100 | – | – | – | 30 | 1000

— patent US20080119521A1, “Butyrlcholinesterase Selective Inhibitors” (priority 2004, published 2008)
